In article PMC3145672, “X-Ray Structure Reveals a New Class and Provides Insight into Evolution of Alkaline Phosphatases” (PLoS ONE, 2011):

Molecular target: T1, SPAP (Sphingomonas sp., UniProt A1YYW7)
T1 construct: gene phoK; recombinant in E. coli, Ni-NTA purified; precursor 559 residues, predicted signal peptide 1-19; residues 31-556 visible in crystal; active monomer, 58 kD by SEC
T1 sequence (A1YYW7 20-559): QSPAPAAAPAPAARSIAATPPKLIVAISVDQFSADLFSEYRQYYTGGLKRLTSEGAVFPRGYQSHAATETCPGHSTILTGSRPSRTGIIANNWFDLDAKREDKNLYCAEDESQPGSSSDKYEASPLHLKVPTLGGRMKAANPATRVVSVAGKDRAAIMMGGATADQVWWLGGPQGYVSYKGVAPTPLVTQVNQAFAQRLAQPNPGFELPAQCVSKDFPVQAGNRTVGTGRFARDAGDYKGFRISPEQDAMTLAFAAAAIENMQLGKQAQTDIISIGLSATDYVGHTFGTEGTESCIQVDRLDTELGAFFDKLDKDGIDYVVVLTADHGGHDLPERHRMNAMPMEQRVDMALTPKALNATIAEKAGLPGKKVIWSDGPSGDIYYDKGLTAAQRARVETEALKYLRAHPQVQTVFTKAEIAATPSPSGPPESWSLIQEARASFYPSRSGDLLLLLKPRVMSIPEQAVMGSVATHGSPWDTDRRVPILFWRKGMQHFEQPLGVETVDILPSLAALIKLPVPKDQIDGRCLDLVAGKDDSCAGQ
Test: release of pNP at […] nm
Type: biochemical
Details: pH 8.5, room temperature; size exclusion chromatography fraction

O=[N+]([O-])c1ccc(OP(=O)(O)O)cc1 [pNPP]
release of pNP at 405 nm: Catalytic activity of eluted SPAP fraction was checked, at room temperature
